Test results from patent US20070197599A1, “HYDROXYLAMINES AND DERIVATIVES AS ANTI-ANGIOGENIC AGENTS” (priority 2006, published 2007).
Where two headings read alike, the source gives them in different places.

Assays:
[1] = tested on: H2O2-induced angiogenesis in the CAM model; test: H2O2-induced angiogenesis in the chick chorioallantoic membrane (CAM) model; type: in vivo; conditions: for inhibition at 88 µM: Gallus gallus
Protocol: Neovascularization was examined by previously described methods (see references at the end of Example 5). Ten-day-old fertilized chicken eggs were incubated at 37° C. with 55% relative humidity. In the dark with the help of candling lamp and using a hypodermic needle a small hole was punctured in the shell covering the air sac. A second hole was punctured on the wider side of the egg above an avascular area of the embryonic membrane. An artificial air sac was created below the second hole by applying gentle vacuum to the first hole using a small rubber squeeze bulb. The vacuum caused the separation of chorioallantoic membrane (CAM) from the shell. An approximately 1.0 cm^2 widow was cut in the shell over the dropped CAM with the use of a mini drill. The underlying CAM was accessed through this small window.
Filter disks were punched using a small puncher from filter paper #1 (Whatman International, United Kingdom). Filter disks were soaked in 3 mg/ml cortisone acetate solution (95% ethanol and water) and air-dried under sterile condition. For inducing angiogenesis, sterile filter disks were saturated with bFGF (1 μg/ml) or other pro-angiogenesis factors and control disks were saturated with PBS without Calcium and Magnesium.
Using sterile forceps one filter/CAM was placed from the window. The window was sealed with Highland brand transparent tape. After 24 hr, 10-25 µl of test agent (inhibitor) was injected intravenously or added topically into the CAM membrane of bFGF or other pro-angiogenesis factors stimulated CAMs. • Control filter disks received PBS without Calcium and Magnesium. • After 48 hr, CAM tissue directly beneath filter disk was harvested and placed in a 35-mm Petri dish. Eight-Ten eggs/treatment group was used.
A pro-angiogenic agent (see Examples, below) was added to induce new blood vessel branches on the CAM of 10-day old embryos. Sterile disks of #1 filter paper (Whatman International, United Kingdom) were pre-treated with 3 mg/ml cortisone acetate, and air dried under sterile conditions. The disks were then suspended in PBS (Phosphate Buffered Saline) and placed on growing CAMs. Filters treated with TPH (TEMPOL-H) or TEMPOL and/or H2O2 or TPH and/or bFGF or VEGF were placed on the first day of the 3-day incubation.
Digital Images and Microscopic analysis of CAM sections: CAM sections from Petri dish were examined using SV6 stereomicroscope (Karl Zeiss) at 50× magnification. Digital images were captured using a 3-CCD color video camera system (Toshiba America, New York, N.Y.). These images were analyzed using Image-Pro Plus software (Media Cybernetics). The number of branch points in blood vessels within the circular region superimposed to the area of a filter disk was counted for each section. After incubation at 37° C. with 55% relative humidity for 3 days, the CAM tissue directly beneath each filter disk was resected from control and treated CAM samples. Tissues were washed three times with PBS. Sections were placed in a 35-mm Petri dish (Nalge Nunc; Rochester, N.Y.) and were examined under a SV6 stereomicroscope (Karl Zeiss; Thornwood, N.Y.) at 50× magnification. Digital images of CAM sections adjacent to filters were collected using a 3-CCD color video camera system (Toshiba America; New York, N.Y.) and analyzed with the Image-Pro Plus software (Media Cybernetics; Silver Spring, Md.). The number of vessel branch points contained in a circular region equal to the area of a filter disk was counted for each section. Percent inhibition data are expressed as the quotient of the experimental value minus the negative control value divided by the difference between the positive control value and the negative control value. One image was counted in each CAM preparation, and findings from eight CAM preparations were analyzed for each treatment condition. In addition, each experiment was performed three times. […]

mouse V79 cells = conditions: Mitchell et al., 2000; cited from earlier work
lens endothelial cells = conditions: in vitro; Sasaki et al., 1998; cited from earlier work
[2] = tested on: selenite induced cataract; conditions: mice; cited from earlier work

For `CC1(C)CC(O)CC(C)(C)N1[O]` [TEMPOL, 4-hydroxy-2,2,6,6-tetramethylpiperidine-N-oxyl radical, reference compound], which “inhibition of angiogenesis induced by super-maximal concentrations of H2O2” value ([1]; CAM model, Tables 1A and 1B) is on record?
Its value is “effectively inhibited”.

What about the inhibition at 88 µM ([1]; read-out: % Inhibition ± SD, H2O2 (88 μM, 30 ng) + 100 μg test agent) of the same molecule?
The inhibition at 88 µM was 32.1 ± 14.1%.

And the inhibition at 88 µM ([1]; read-out: % Inhibition ± SD, H2O2 (88 μM, 30 ng) + 200 μg test agent)?
The inhibition at 88 µM was 32.5 ± 12.1%.

And the inhibition at 88 µM ([1]; read-out: % Inhibition ± SD, H2O2 (88 μM, 30 ng) + 400 μg test agent)?
The inhibition at 88 µM was 30.1 ± 8.7%.

And the inhibition at 88 µM ([1]; read-out: % Inhibition ± SD, H2O2 (88 μM, 30 ng) + 800 μg test agent)?
The inhibition at 88 µM was 60.9 ± 3.2%.

And the “radioprotection of mouse V79 cells” value (mouse V79 cells)?
The value was “concentration dependent”.

What about the “prevention of X-ray radiation damage to lens endothelial cells” value (lens endothelial cells) of the same molecule?
The value was “prevented X-ray radiation damage”.

And the “prevention of selenite induced cataract” value [2]?
The value was “not effective”.
